Assay results as given in patent publication US20240158446A1, “CYCLIC COMPOUND HAVING SELECTIVE INHIBITORY ACTION ON KRAS OVER HRAS AND NRAS” (CHUGAI SEIYAKU KABUSHIKI KAISHA, priority 2021, published 2024).
Read-outs that look alike come from different tables or passages of the source.

Legend:
[1] = test system: human lung cancer strain NCI-H441;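 further: cell proliferation inhibition after four days measured by CellTiter-Glo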
[2] = target: GDP-bound NRAS wild-type protein (Homo sapiens, UniProt P01111); experiment: Binding to NRAS by surface plasmon resonance (SPR), Single Cycle Kinetics; settings: for NRAS/KRAS (ratio of KD value for NRAS to KD value for KRAS) / NRAS/KRAS (ratio of KD value with respect to NRAS to KD value with respect to KRAS): SPR, GDP-bound NRAS wild-type protein vs GDP-bound KRAS wild-type protein
[3] = target: GDP-bound HRAS wild-type protein (Homo sapiens, UniProt P01112); experiment: Binding to HRAS by surface plasmon resonance (SPR), Single Cycle Kinetics; settings: for HRAS/KRAS (ratio of KD value for HRAS to KD value for KRAS) / HRAS/KRAS (ratio of KD value with respect to HRAS to KD value with respect to KRAS): SPR, GDP-bound HRAS wild-type protein vs GDP-bound KRAS wild-type protein
[4] = target: GDP-bound KRAS wild-type protein (Homo sapiens, UniProt P01116); experiment: Binding to KRAS by surface plasmon resonance (SPR), Single Cycle Kinetics; settings: GDP-bound KRAS wild-type protein, read-out: KRAS KD
[5] = SPR, Single Cycle Kinetics, 1:1 binding model
[6] = SPR Single Cycle Kinetics, 1:1 binding model

Sequence of GDP-bound HRAS wild-type protein (P01112 whole entry): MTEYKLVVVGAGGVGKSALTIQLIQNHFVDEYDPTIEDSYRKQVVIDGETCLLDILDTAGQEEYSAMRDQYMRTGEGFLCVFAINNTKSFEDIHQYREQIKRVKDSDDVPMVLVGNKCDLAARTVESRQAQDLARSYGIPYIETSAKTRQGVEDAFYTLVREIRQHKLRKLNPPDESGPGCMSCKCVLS
Sequence of GDP-bound NRAS wild-type protein (P01111 whole entry): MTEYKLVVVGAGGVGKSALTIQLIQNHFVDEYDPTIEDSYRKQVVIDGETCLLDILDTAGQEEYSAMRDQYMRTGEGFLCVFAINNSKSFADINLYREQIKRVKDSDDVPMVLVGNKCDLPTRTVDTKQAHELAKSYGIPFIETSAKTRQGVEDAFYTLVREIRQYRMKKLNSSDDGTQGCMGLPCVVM
Sequence of GDP-bound KRAS wild-type protein (P01116 whole entry): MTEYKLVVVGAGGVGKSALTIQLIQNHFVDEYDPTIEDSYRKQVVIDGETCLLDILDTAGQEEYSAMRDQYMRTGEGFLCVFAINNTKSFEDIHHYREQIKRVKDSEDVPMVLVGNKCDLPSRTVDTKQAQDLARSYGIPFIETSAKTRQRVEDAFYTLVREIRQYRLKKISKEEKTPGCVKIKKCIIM

Structure (SMILES)	IC50 [1] [nM]	NRAS/KRAS (ratio of KD value for NRAS to KD value for KRAS) ([2]; KD ratio class)	HRAS/KRAS (ratio of KD value for HRAS to KD value for KRAS) ([3]; KD ratio class)	Kd [4, 5] [nM]	Kd [4, 6] [nM]	further results
CCC[C@H]1C(=O)N[C@@H]([C@@H](C)CC)C(=O)N(C)CC(=O)N(C)[C@H]2C/C=C\CCN(C2=O)[C@@H](Cc2ccc(C(F)(F)F)cc2)C(=O)N(C)CC(=O)N[C@@H](CCc2ccc(C(F)(F)F)c(OC)c2)C(=O)N2C[C@H](OCC)C[C@H]2C(=O)NC2(CCC2)C(=O)N(C)[C@@H](C2CCCC2)C(=O)N(C)[C@H](C(=O)N(C)C)CC(=O)N1C [PP1244, (2S,8S,12R,14S,20S,23S,27S,30S,36S,38Z)-20-cyclopentyl-12-ethoxy-8-[2-[3-methoxy-4-(trifluoromethyl)phenyl]ethyl]-N,N,4,19,22,26,32,35-octamethyl-30-[(1S)-1-methylpropyl]-3,6,9,15,18,21,25,28,31,34,42-undecaoxo-27-propyl-2-[[4-(trifluoromethyl)phenyl]methyl]spiro[1,4,7,10,16,19,22,26,29,32,35-undecazatricyclo[34.5.1.0^10,14]dotetracont-38-ene-17,1′-cyclobutane]-23-carboxamide]	8.9	A (a compound having 10 or more and less than 20 is denoted as A)	B (a compound having 3 or more and less than 10 is denoted as B)	0.061		
CCO[C@@H]1C[C@H]2C(=O)NC3(CCC3)C(=O)N(C)[C@@H](C3CCCC3)C(=O)N(CCC3CCCC3)[C@H](C(=O)N(C)C)CC(=O)N(C)[C@@H](CC)C(=O)N[C@@H]([C@@H](C)CC)C(=O)N(C)CC(=O)N(C)[C@H]3CCCCN(C3=O)[C@@H](Cc3ccc(C(F)(F)F)cc3)C(=O)N(C)CC(=O)N[C@@H](CCc3cc(F)c(C(F)(F)F)c(F)c3)C(=O)N2C1 [PP0646]	17				0.14	NRAS/KRAS (ratio of KD value with respect to NRAS to KD value with respect to KRAS) [2]: C (A compound having a KD ratio of 0.1 or more and less than 3 is denoted as C); HRAS/KRAS (ratio of KD value with respect to HRAS to KD value with respect to KRAS) [3]: B (a compound having 3 or more and less than 10 is denoted as B)
CC[C@H](C)[C@@H]1NC(=O)[C@H](CC(C)C)N(C)C(=O)C[C@@H](C(=O)N2CCOCC2)N(C)C(=O)[C@H](C2CCCC2)N(C)C(=O)C2(CCC2)NC(=O)[C@@H]2[C@@H](OCC(F)F)CCN2C(=O)[C@H](CCc2cc(F)c(C(F)(F)F)c(F)c2)NC(=O)CN(C)C(=O)[C@H](Cc2ccc(C(F)(F)F)cc2)N2CCCCC[C@@H](C2=O)N(C)C(=O)CN(C)C1=O [PP1012]	41.6					NRAS/KRAS (ratio of KD value for NRAS to KD value for KRAS) [2]: A (a compound having 10 or more and less than 20 is denoted as A); HRAS/KRAS (ratio of KD value for HRAS to KD value for KRAS) [3]: B (a compound having 3 or more and less than 10 is denoted as B); Kd ([4]; SPR, Single Cycle Kinetics): 0.9 nM
CCO[C@@H]1C[C@H]2C(=O)NC3(CCCC3)C(=O)N(C)[C@@H](C(CC)CC)C(=O)N(C)[C@H](C(=O)N3CCCC3)CC(=O)N(C)[C@@H](COC)C(=O)N[C@@H]([C@@H](C)CC)C(=O)N(C)CC(=O)N(C)[C@H]3C/C=C\CCN(C3=O)[C@@H](CC3CCCCC3)C(=O)N(C)CC(=O)N[C@@H](CCc3cc(F)c(C(F)(F)F)c(F)c3)C(=O)N2C1 [PP1439]	87.3	AA (a compound having 20 or more is denoted as AA)	A (a compound having 10 or more and less than 20 is denoted as A)	1.2		
CC[C@H](C)[C@@H]1NC(=O)[C@H](CC(C)C)N(C)C(=O)C[C@@H](C(=O)N2CCOCC2)N(C)C(=O)[C@H](C2CCCC2)N(C)C(=O)C2(CCC2)NC(=O)[C@@H]2CCCN2C(=O)[C@H](CCc2cc(F)c(C(F)(F)F)c(F)c2)NC(=O)CN(C)C(=O)[C@H](Cc2ccc(C(F)(F)F)cc2)N2C[C@H](C)[C@H](C)C[C@@H](C2=O)N(C)C(=O)[C@@H]2CCN2C1=O [PP1367]	29.3	A (a compound having 10 or more and less than 20 is denoted as A)	B (a compound having 3 or more and less than 10 is denoted as B)	0.34		
CCC[C@H]1C(=O)N[C@@H]([C@@H](C)CC)C(=O)N(C)CC(=O)N(C)[C@H]2C/C=C\CCN(C2=O)[C@@H](Cc2ccc(C)cc2)C(=O)N(C)CC(=O)N[C@@H](CCc2ccc(C(F)(F)F)c(OC)c2)C(=O)N2C[C@H](OCC)C[C@H]2C(=O)NC2(CC(C)(C)C2)C(=O)N(C)[C@@H](CC2CCC2)C(=O)N(C)[C@H](C(=O)N(C)C)CC(=O)N1C [PP2753]	52				0.97	NRAS/KRAS (ratio of KD value with respect to GDP-bound NRAS wild-type protein to KD value with respect to KRAS) ([2]; SPR KD ratio NRAS/KRAS, class symbols): A (a compound having 10 or more and less than 20 is denoted as A); HRAS/KRAS (ratio of KD value with respect to GDP-bound HRAS wild-type protein to KD value with respect to KRAS) ([3]; SPR KD ratio HRAS/KRAS, class symbols): B (a compound having 3 or more and less than 10 is denoted as B)
CCO[C@@H]1C[C@H]2C(=O)NC3(CC=CC3)C(=O)N(C)[C@@H](C3CCCC3)C(=O)N(C)[C@H](C(=O)N(C)C)CC(=O)N(C)[C@@H](C)C(=O)N[C@@H]([C@@H](C)CC)C(=O)N(C)CC(=O)N(C)[C@H]3CCCCCN(C3=O)[C@@H](Cc3ccc(C(F)(F)F)cc3)C(=O)N(C)CC(=O)N[C@@H](CCc3cc(F)c(C(F)(F)F)c(F)c3)C(=O)N2C1 [PP0724]	127				0.44	NRAS/KRAS (ratio of KD value with respect to NRAS to KD value with respect to KRAS) [2]: B (a compound having 3 or more and less than 10 is denoted as B); HRAS/KRAS (ratio of KD value with respect to HRAS to KD value with respect to KRAS) [3]: B (a compound having 3 or more and less than 10 is denoted as B)
CC[C@H](C)[C@@H]1NC(=O)[C@H](CC2CCC2)N(C)C(=O)C[C@@H](C(=O)N(C)C)N(C)C(=O)[C@H](C2CCCC2)N(C)C(=O)C2(CCCC2)NC(=O)[C@@H]2CCCN2C(=O)[C@H](CCc2ccc(C(F)(F)F)c(Cl)c2)NC(=O)CN(C)C(=O)[C@H](Cc2ccc(C(F)(F)F)cc2)N2C[C@H](C)CC[C@@H](C2=O)N(C)C(=O)CN(C)C1=O [PP1342]	5	B (a compound having 3 or more and less than 10 is denoted as B)	B (a compound having 3 or more and less than 10 is denoted as B)	0.091		
CCCO[C@H](C)[C@@H]1NC(=O)[C@H](COCC)N(C)C(=O)C[C@@H](C(=O)N(C)CC)N(C)C(=O)[C@H](C2CCCC2)N(C)C(=O)C2(CC(C)(C)C2)NC(=O)[C@@H]2C[C@H](C)CN2C(=O)[C@H](CCc2ccc(C(F)(F)F)c(OC)c2)NC(=O)CN(C)C(=O)[C@H](Cc2ccc(C)cc2)N2CC/C=C\C[C@@H](C2=O)N(C)C(=O)CN(C)C1=O [PP2425]	51.7					NRAS/KRAS (ratio of KD value for NRAS to KD value for KRAS) [2]: AA (a compound having 20 or more is denoted as AA); HRAS/KRAS (ratio of KD value for HRAS to KD value for KRAS) [3]: A (a compound having 10 or more and less than 20 is denoted as A); Kd ([4]; SPR, Single Cycle Kinetics): 0.23 nM
CCO[C@@H]1C[C@H]2C(=O)NC3(CCC3)C(=O)N(C)[C@@H](C(CC)CC)C(=O)N(C)[C@H](C(=O)N(C)C)CC(=O)N(C)[C@@H](C)C(=O)N[C@@H]([C@@H](C)CC)C(=O)N(C)CC(=O)N(C)[C@H]3C/C=C\CCN(C3=O)[C@@H](Cc3ccc(C(F)(F)F)cc3)C(=O)N(C)CC(=O)N[C@@H](CCc3ccc(Cl)c(Cl)c3)C(=O)N2C1 [PP1214]	93.4	AA (a compound having 20 or more is denoted as AA)	A (a compound having 10 or more and less than 20 is denoted as A)	0.34		
